We go through 21 compounds from PMC10082216 (Nature Communications, 2023).

Structures can show the parent of a compound that is named as a salt. Where two headings read alike, the source gives them in different places.

Series [1] has as its system mature stage V gametocytes (NF54 strain). Briefly: microbe, parasite or virus in culture. The format is cell-based, Plasmodium falciparum. The settings on record: read-out: Stiffening IC50 (retention). As for the experimental part:
(§1) Screening was conducted as previously described. Briefly, mature stage V gametocytes (NF54 strain) were cultured in vitro, then exposed to the explored compounds and filtered thereafter through layers of microspheres (microsphiltration)[25],[28]. Stiffening activity was determined by comparing gametocytemia up and downstream from the microsphere layers after filtration of drug-exposed gametocytes in 384-well plates using a vacuum manifold. Gametocytemia was assessed using DNA (Sybr Green) and erythrocyte membrane (CellMask) staining. Killing effect was assessed by MitoTracker staining. We screened two small libraries, specifically the Pathogen Box from the Medicine for Malaria Venture and the Kinase Inhibitors Box from GSK (400 and 350 compounds, respectively, Fig. 1A, B), and furthermore the larger ReFrame repurposing library (12,805 compounds, Fig. 1C).
(§2) The Pathogen Box library (400 compounds, provided by MMV-Medicine for Malaria Ventures, Geneva, Switzerland), the Kinase Inhibitors Box library (350 compounds, provided by GSK-Glaxo SmithKline DDW Unit, Tres Cantos, Spain), and the ReFrame library (12,805 compounds provided by the California Institute for Biomedical Research-Calibr, La Jolla, CA, USA) were used according to the providers’ instructions. DMSO-solubilized compounds (10 mM stock concentration) were loaded in 384-well plates (Seahorse, cat. no. 201035−100). Two columns were left empty for the controls. For each compound, 5 nL were pre-spotted in a single well to reach a final concentration of 1.11 μM. The final volume for each well was 45 μl. Controls were prepared as follows: 22.5 nL of DMSO were loaded in 16 wells as negative controls (0.05% final concentration); 22.5 nL of NITD609 (provided by MMV, Geneva, Switzerland) 1 mM were loaded in 8 wells (0.5 μM final concentration), 17 nL of Calyculin A (Sigma, cat. no. C5552) […] were loaded in 6 wells (75 nM final concentration) and 225 nL of Gentian Violet (MolPort, cat. no. 002-133-551) 10 mM were loaded in the remaining 2 wells (50 μM final concentration). Plates were prepared in triplicate for the Pathogen Box and sextuplicate for the Kinase Inhibitors Box.
(§3) Plasmodium falciparum NF54 strain parasites (used for screening campaign) were cultured at 4% hematocrit in RBCs from informed blood donors (blood group A) as previously described. Parasites were taken from the -80 °C freezer, then rapidly melt for 1 minute in a 37 °C water bath. A saline solution was gently added to avoid the lysis. Firstly, NaCl dissolved at 12% in distilled water (1/5 of the volume measured in the cryovial) and then NaCl dissolved at 1.6% (9 times the cryovial’s volume). After that, fresh RBCs were added to allow parasites re-growth. Infected RBCs were kept in RPMI medium (Sigma-Aldrich, cat. no. R4130), supplemented with 10% of decomplemented human serum, hypoxanthine 50 mg/l (Sigma-Aldrich, cat. no. H9636). Biobank of Castilla y Leon and Centro de Transfusiones de Madrid as providers of human red blood cell concentrates. The production of gametocytes was induced from a 0.5% ring-stage parasitemia (day 0). Medium was changed daily to induce gametocytes differentiation, as previously described. At day 17, gametocytes were concentrated using a density gradient medium (NycoPrep 1.077, Progen cat. no. 1114550)[27]. Parasitemia was adjusted by FACS (SYBR-Green and MitoTracker double staining, 3–5% targeted). Hematocrit was adjusted to 0.5% by adding fresh RBCs and controlled by manual counting in a Neubauer chamber (Celeromics, cat. no. 717810). Finally, the gametocyte suspension was poured (45 μL/well) into the compound-containing 384-well microplate, then incubated 24 hours both for the screening campaign and the dose-response analysis. Both asexual and sexual stages were cultivated in RPMI 1640 supplemented with 25 mM HEPES, 50 mg/L hypoxanthine, 50 μg/mL gentami-cin, 10% pooled heat-inactivated human serum (A^+).

The subject of another series is P.falciparum Dd2. Set-up: method as in previously published reports (Table S1 legend). The settings on record: 72 h; results in previous assays; ref previously published reports (Table S1 legend); read-out: 72-h Dd2-SybrGreen PBFS assay IC50; cited from earlier work.
For a further series, the system named is HEK293T. The settings on record: cited from earlier work.
In a further series the test system is HepG2. The settings on record: cited from earlier work.
Series [2] deals with mature stage V gametocytes (NF54 strain). Kind of series: High-throughput screening: killing effect by MitoTracker staining, primary screening at 1.11 µM and dose-response analysis. It is filed as cell-based, Plasmodium falciparum. The settings on record: read-out: Killing IC50. As for the experimental part: as §1, §2, §3
Series [3] in a line: Hit scoring on safety in human subjects and pharmacokinetics. The settings on record: for Score (PK): peak plasma concentration vs IC50. The source says:
Hits from the ReFrame library were further selected based on safety, preferably oral administration (high score if oral), and potential availability for widespread use.

The mark [4] stands for this setting: Plasmodium falciparum, NF54, 24 h.
Setting [5] is: read-out: Cellular cytotoxicity assay IC50, HEK293T, 72 h, first value of cell, ref previously published reports (Table S1 legend).
Where [6] appears, read: read-out: Cellular cytotoxicity assay IC50, HepG2, 72 h, second value of cell, ref previously published reports (Table S1 legend).
The mark [7] stands for this setting: stage V gametocytes NF54, 24 h, dose-response analysis, N/A = not active in dose-response analysis.
Where [8] appears, read: Plasmodium falciparum, NF54, 24 h, stage V gametocytes NF54, 24 h, dose-response analysis, N/A = not active in dose-response analysis.

For orientation: IC50 means the midpoint of a concentration-inhibition curve.

Turning to `CO[C@H]1[C@H](O)[C@H](O[C@H]2CC[C@@]3(C=O)[C@H](CC[C@@H]4[C@@H]3CC[C@]3(C)[C@@H](C5=CC(=O)OC5)CC[C@]43O)C2)O[C@@H](C)[C@@H]1O` [Peruvoside], the IC50 in series [1] (setting [4]) is 2.68 µM; in the series on P.falciparum Dd2, 9.95 µM; with HEK293T (setting [5]), 0.02 µM; in the series with HepG2 (setting [6]), 0.032 µM.
For the compound `CN(C)CCOc1ccc2[nH]c(C(=O)NCC#Cc3ccc(C(=O)NO)cc3)cc2c1` [CRA-026440], the IC50 in series [1] (setting [7]) was 0.55 µM; in series [2] (setting [7]), 16 µM; with P.falciparum Dd2, 0.063 µM; with HEK293T it was 0.081 µM; with HepG2 it was 0.011 µM.
`CC[C@H]1CN2CCc3cc(OC)c(OC)cc3[C@@H]2C[C@@H]1C[C@H]1NCCc2cc(O)c(OC)cc21` [Cephaeline]: the IC50 in series [1] (setting [4]) was 3.8 µM; in series [2] (setting [4]), 1 µM; with P.falciparum Dd2, 0.028 µM; with HEK293T (setting [5]) it was 0.014 µM; in the series on HepG2 (setting [6]), 0.062 µM.
For `C(=N\NC1=NCCN1)/c1c2ccccc2c(/C=N/NC2=NCCN2)c2ccccc12` [Bisantrene HCl], the IC50 in series [2] (setting [7]) is 2.2 µM; with P.falciparum Dd2, 0.065 µM; in the series on HEK293T (setting [5]), 0.054 µM; with HepG2 (setting [6]), 0.062 µM.
With `COc1cccc2c1C(=O)c1c(O)c3c(c(O)c1C2=O)C[C@@](O)(C(C)=O)C[C@@H]3O[C@H]1C[C@H](N)[C@H](O)[C@H](C)O1` [Daunorubicin], the IC50 in series [1] (setting [4]) is 12 µM; with HEK293T, 0.039 µM; in the series with HepG2, 0.126 µM.
`CO[C@H]1/C=C\C=C(/C)C(=O)NC2=CC(=O)C(NCCN(C)C)=C(C[C@@H](C)C[C@H](OC)[C@H](O)[C@@H](C)/C=C(\C)[C@@H]1OC(N)=O)C2=O` [Alvespimycin hydrochloride]: the IC50 in series [1] (setting [4]) is 0.96 µM; in series [2] (Plasmodium falciparum, stage V gametocytes NF54, 24 h, dose-response analysis, N/A = not active in dose-response analysis) it was 1.75 µM; in the series on P.falciparum Dd2 it was 0.272 µM; with HEK293T (setting [5]) it was 0.098 µM; with HepG2 (setting [6]), 0.014 µM.
For `CCCCC(CC)CNC(=N)NC(=N)NCCCCCCNC(=N)NC(=N)NCC(CC)CCCC` (stereo not shown) [Alexidine dihydrochloride], the IC50 was 0.55 µM in series [1] (setting [4]); 41 µM in series [2] (setting [8]); 0.032 µM with P.falciparum Dd2; 3.33 µM in the series on HEK293T (setting [5]); 3.06 µM with HepG2 (setting [6]).
As to `CC1=C(C)C(=O)C(CCCCCCCCCC[P+](c2ccccc2)(c2ccccc2)c2ccccc2)=CC1=O` [SkQ1], the IC50 is 1.9 µM in series [1] (setting [7]); 3.85 µM in series [2] (setting [7]); 1.05 µM in the series on P.falciparum Dd2; 0.778 µM with HEK293T; 3.13 µM in the series on HepG2.
Tyrothricin: the IC50 in the series on HEK293T is 1.8 µM; in the series on HepG2, 1.9 µM.
With `C[C@H]1O[C@@H](O[C@H]2[C@@H](O)C[C@H](O[C@H]3[C@@H](O)C[C@H](O[C@H]4CC[C@@]5(C)[C@H](CC[C@@H]6[C@@H]5CC[C@]5(C)[C@@H](C7=CC(=O)OC7)CC[C@]65O)C4)O[C@@H]3C)O[C@@H]2C)C[C@H](O)[C@@H]1O` [Digitoxin], the IC50 in series [1] (setting [4]) is 10.6 µM; in the series on HEK293T (setting [5]), 0.008 µM; in the series on HepG2 (setting [6]), 0.011 µM. Moreover, the “Score (safety)” value in series [3] (human) turned out to be 3. For the same compound, the “Score (PK)” value in series [3] came to 0.
Turning to `O=C(NCCN1CCCC1)c1cc(-c2ccc(CN3CCOCC3)cc2)nc2ccc(F)cc12` [DDD498], the IC50 in series [1] (setting [4]) was 2.6 µM; in series [2] (setting [8]) it was 1.7 µM; in the series with P.falciparum Dd2 it was 0.004 µM. Also, in series [3], the “Score (safety)” value came to 0. For the same compound, the “Score (PK)” value in series [3] amounted to 0.
As to `Cc1nc2c(s1)C(O)=C/C(=N\CCN(C)C)C2=O` [BN-82685], the IC50 in series [1] (setting [4]) was 4.6 µM; in series [2] (setting [8]) it was 2.8 µM; in the series with P.falciparum Dd2, 1.74 µM; in the series with HEK293T (setting [5]) it was 2.92 µM; in the series on HepG2 (setting [6]), 1.89 µM.
With `COC(=O)C1=C(C)NC(C)=C(C(=O)OC)C1c1cc([N+](=O)[O-])ccc1OCCCCNCC(O)COc1ccccc1` (stereo not shown) [YM 161514], the IC50 is 3.6 µM in series [1] (setting [7]), 5.55 µM in series [2] (setting [7]), 2.26 µM in the series on P.falciparum Dd2 and 3.97 µM with HepG2. Further, the “Score (safety)” value in series [3] worked out at 0. In addition, the “Score (PK)” value in series [3] is recorded as 0.
Consider `CC(C)(C)NCc1ccc(Nc2ccnc3cc(Cl)ccc23)cc1O` [N-tert-butylisoquine], for which the IC50 in series [1] (setting [4]) was found to be 9.45 µM. The IC50 in series [2] (setting [8]) came to 9.55 µM. For the same compound, in series [3], the “Score (safety)” value turned out to be 0 and the “Score (PK)” value came to 0.
Take `COC1=C(OC)C(=O)C(CCCCCCCCCC[P+](c2ccccc2)(c2ccccc2)c2ccccc2)=C(C)C1=O` [Mitoquinone mesylate]: the results for the IC50 in series [1] (setting [4]) and in series [2] (setting [8]) were 12.1 µM and 11.7 µM, respectively. Besides, in series [3] (human), the “Score (safety)” value is listed as 3. Besides, the “Score (PK)” value in series [3] was 1 (Peak plasma concentration lower than 1/3 IC50 (Score = 1)).
With `CC[n+]1c(/C=C/c2ccc(N3CCCC3)cc2)cccc1/C=C/c1ccc(N2CCCC2)cc1.[I-]` [Stilbazium iodide], the IC50 in series [1] (setting [7]) turned out to be 1.57 µM. The IC50 in series [2] (setting [7]) amounted to 8.75 µM. In series [3], the “Score (safety)” value amounted to 0 and the “Score (PK)” value came out at 0.
Take `Cn1cc(CNCC2CCN(c3ncc(C(=O)NO)cn3)CC2)c2ccccc21` [Quisinostat]: in series [1] (setting [4]), the IC50 was 3.5 µM. In addition, the IC50 in series [2] (setting [8]) amounted to 5.2 µM. In series [3], the “Score (safety)” value is 0 and the “Score (PK)” value came to 0.
For the compound `CC(O)C(=O)O.Cc1[nH]c2ccccc2c1CCNCc1ccc(/C=C/C(=O)NO)cc1` [Panobinostat lactate], the IC50 in series [1] (setting [7]) was 0.22 µM. For the same compound, the IC50 in series [2] (setting [7]) came out at 0.3 µM. Further, in series [3], the “Score (safety)” value was 0 and the “Score (PK)” value is reported as 0.
Consider `C[C@@H]1O[C@@H](O[C@H]2CC[C@]3(C=O)[C@H]4CC[C@]5(C)[C@@H](C6=CC(=O)OC6)CC[C@]5(O)[C@@H]4CC[C@]3(O)C2)[C@H](O)[C@H](O)[C@H]1O` [Convallatoxin], for which the IC50 in series [1] (setting [4]) is 0.05 µM; in the series on P.falciparum Dd2, 0.016 µM; with HEK293T (setting [5]), 0.026 µM; with HepG2 (setting [6]) it was 0.033 µM.
`CC(=O)[O][Hg][c]1cc(C(C)(C)CC(C)(C)C)ccc1O` [Acetomeroctol]: the IC50 in series [1] (setting [7]) was 5 µM; in series [2] (setting [7]) it was 7.2 µM; in the series with HEK293T (setting [5]), 0.462 µM; in the series with HepG2 (setting [6]) it was 1.92 µM.
Regarding `Cc1cc(Nc2ncc(Cl)c(Nc3ccccc3S(=O)(=O)C(C)C)n2)c(OC(C)C)cc1C1CCNCC1` [Ceritinib], the IC50 was determined as 10.5 µM in series [1] (setting [4]) and 10 µM in series [2] (setting [8]). The “Score (safety)” value in series [3] came to 0. Besides, the “Score (PK)” value in series [3] is 0.
